Experimental data published in US20250082624A1, “METHODS OF TREATING COGNITIVE IMPAIRMENT” (NeuroTherapia, Inc., priority 2023, published 2025).
“And” between values parts separate entries of the source, which are not always exact repeats. Identical values can stand only once. “Also recorded” adds a separate entry of the source. Like-named read-outs stand apart in the source and are kept apart here.

Assay: Phase 1b MAD plasma pharmacokinetics, non-compartmental analysis
Assay type: in vivo, human
Excerpt: Methods: All study procedures were approved by the IRB, and informed consent was obtained. Three cohorts of volunteers 45-80 years of age with well-controlled comorbidities (NOAD) and one cohort of AD patients diagnosed with cognitive impairment consistent with prodromal AD per International Working Group criteria or mild AD per National Institute on Aging—Alzheimer's Association criteria (n=6 active, 2 placebo per cohort) were enrolled. Participants were admitted to the study site for the duration of the dosing and returned 7-12 days after the last dose for a safety visit. Participants received NTRX-07 (10, 30, or 90 mg) or a placebo in a double-blinded randomization orally once daily for seven days. Subjects were assessed for changes in vital signs, including maneuvers to induce lightheadedness, electrocardiograms, 24-hour electroencephalograms (EEG), and safety laboratory studies. The second cohort returned and received a single repeat dose after a standard high-fat meal. The AD cohort also underwent cognitive testing and had blood samples for biomarkers drawn. Subjects had PK sampling done after the first and final dose of the study drug. An independent safety review committee conducted a blinded safety review of adverse events and plasma levels between each cohort.
All subjects had PK sampling done after the first and final dose of the study drug.
Raw bioanalytical data were received from Nuvisan following analysis of plasma samples from each of four cohorts. PK parameters were calculated by noncompartmental analysis using standard equations. Specifically, area under the plasma concentration versus time curve (AUC) was calculated using the trapezoid rule. Maximal plasma concentration (Cmax) and time of maximal plasma concentration (Tmax) were taken directly from the data. Clearance divided by bioavailability (Cl/F) was calculated as the dose divided by the AUC. Apparent volume of distribution over bioavailability (Vd/F) was calculated as dose divided by Cmax.
With oral administration of the dose every 24 hours for 7 days, blood samples were taken over a 24-hour interval on Days 1 and 7 and before and after dosing on Day 3.
Raw bioanalytical data were received from Nuvisan on Oct. 27, 2022. […] Specifically, area under the plasma concentration versus time curve (AUC) was calculated using the trapezoid rule. Maximal plasma concentration (Cmax) and time of maximal plasma concentration (Tmax) were taken directly from the data. Clearance divided by bioavailability (Cl/F) was calculated as the dose divided by the AUC. Apparent volume of distribution over bioavailability (Vd/F) was calculated as dose divided by Cmax.
Raw bioanalytical data were received from Nuvisan on Nov. 24, 2022. […] Specifically, area under the plasma concentration versus time curve (AUC) was calculated using the trapezoid rule. Maximal plasma concentration (Cmax) and time of maximal plasma concentration (Tmax) were taken directly from the data. Clearance divided by bioavailability (Cl/F) was calculated as the dose divided by the AUC. Apparent volume of distribution over bioavailability (Vd/F) was calculated as dose divided by Cmax.
Raw bioanalytical data were received from Nuvisan on Dec. 19, 2022. […] Specifically, area under the plasma concentration versus time curve (AUC) was calculated using the trapezoid rule. Maximal plasma concentration (Cmax) and time of maximal plasma concentration (Tmax) were taken directly from the data. Clearance divided by bioavailability (Cl/F) was calculated as the dose divided by the AUC. Apparent volume of distribution over bioavailability (Vd/F) was calculated as dose divided by Cmax.
Raw bioanalytical data were received from Nuvisan on Jun. 30, 2023. […] Specifically, area under the plasma concentration versus time curve (AUC) was calculated using the trapezoid rule. Maximal plasma concentration (Cmax) and time of maximal plasma concentration (Tmax) were taken directly from the data. […]

[1] = Table 17: Cohort D (AD), 90 mg QD oral, Day 7, individual subjects
[2] = Table 19 (interim): Cohort A, 40 mg SDD (10 mg NTRX-07) QD oral, Day 1, individual subjects
[3] = Table 20 (interim): Cohort A, 40 mg SDD (10 mg NTRX-07) QD oral, Day 7, individual subjects
[4] = Table 24 (interim): Cohort B, 120 mg SDD (30 mg NTRX-07) QD oral, Day 1, individual subjects
[5] = Table 25 (interim): Cohort B, 120 mg SDD (30 mg NTRX-07) QD oral, Day 7, individual subjects
[6] = Table 29 (interim): Cohort C, 360 mg SDD (90 mg NTRX-07) QD oral, Day 1, individual subjects
[7] = Table 30 (interim): Cohort C, 360 mg SDD (90 mg NTRX-07) QD oral, Day 7, individual subjects
[8] = Table 34 (interim): Cohort D (AD), 360 mg SDD (90 mg NTRX-07) QD oral, Day 1, individual subjects
[9] = Table 35 (interim): Cohort D (AD), 360 mg SDD (90 mg NTRX-07) QD oral, Day 7, individual subjects

With `CC1(Cc2ccccc2)COc2cc(C(=O)N3CCCCC3)ccc21` (centres unmarked) [NTRX-07, 3-benzyl-3-methyl-2,3-dihydrobenzofuran-6-carboxylic acid-piperidine amide] as the molecule, how does the Cmax [1] read?
Its Cmax is 250 ng/mL and 262 ng/mL and 246 ng/mL and 176 ng/mL and 221 ng/mL.

And the Tmax [1]?
The Tmax was 1.5 h (3×) and 1 h.

And the Cl/F (Table 17: Cohort D (AD), 90 mg QD oral, Day 7, mean ± S.D.)?
Its Cl/F is 117 ± 28 L/h.

And the AUC24 h [2]?
Its AUC24 h is 35.7 ng·h/mL and 73.8 ng·h/mL and 151.0 ng·h/mL and 46.3 ng·h/mL and 154.2 ng·h/mL and 96.8 ng·h/mL.

And the Cl/F [2]?
Its Cl/F is 1120 L/h and 542 L/h and 265 L/h and 864 L/h and 259 L/h and 413 L/h.

What about the Cmax [2] of the same molecule?
Its Cmax is 24.2 ng/mL and 45.0 ng/mL and 36.7 ng/mL and 18.2 ng/mL and 52.6 ng/mL and 37.0 ng/mL.

And the Tmax [2]?
Its Tmax is 1.0 h.

And the Cl/F (Table 19 (interim): Cohort A, 40 mg SDD (10 mg NTRX-07) QD oral, Day 1, mean ± S.D.)?
Its Cl/F is 577 ± 347 L/h.

And the AUC24 h [3]?
The AUC24 h was 49.5 ng·h/mL and 92.8 ng·h/mL and 223.8 ng·h/mL and 41.5 ng·h/mL and 91.9 ng·h/mL and 67.0 ng·h/mL.

What about the Cl/F [3] of the same molecule?
The Cl/F was 808 L/h and 431 L/h and 179 L/h and 963 L/h and 435 L/h and 597 L/h.

And the Cmax [3]?
Its Cmax is 29.6 ng/mL and 39.4 ng/mL and 63.6 ng/mL and 19.6 ng/mL and 46.7 ng/mL and 27.1 ng/mL.

And the Tmax [3]?
Its Tmax is 1.0 h.

And the Cl/F (Table 20 (interim): Cohort A, 40 mg SDD (10 mg NTRX-07) QD oral, Day 7, mean ± S.D.)?
The Cl/F was 569 ± 284 L/h.

And the AUC24 h [4]?
The AUC24 h was 152.3 ng·h/mL and 462.4 ng·h/mL and 716.3 ng·h/mL and 369.3 ng·h/mL and 229.9 ng·h/mL and 97.4 ng·h/mL and 236.4 ng·h/mL.

What about the Cl/F [4] of the same molecule?
The Cl/F was 788 L/h and 260 L/h and 168 L/h and 325 L/h and 522 L/h and 1231 L/h and 508 L/h.

What about the Cmax [4] of the same molecule?
The Cmax was 60.8 ng/mL and 93.9 ng/mL and 209 ng/mL and 127 ng/mL and 153 ng/mL and 47.9 ng/mL and 70.6 ng/mL.

And the Tmax [4]?
The Tmax was 1 h (3×) and 2 h.

And the Cl/F (Table 24 (interim): Cohort B, 120 mg SDD (30 mg NTRX-07) QD oral, Day 1, mean ± S.D.)?
Its Cl/F is 549 ± 401 L/h.

What about the AUC24 h [5] of the same molecule?
Its AUC24 h is 118.0 ng·h/mL and 582.3 ng·h/mL and 286.5 ng·h/mL and 241.7 ng·h/mL and 67.1 ng·h/mL and 200.4 ng·h/mL.

What about the Cl/F [5] of the same molecule?
The Cl/F was 1017 L/h and 206 L/h and 419 L/h.

What about the Cmax [5] of the same molecule?
The Cmax was 92.9 ng/mL and 236 ng/mL and 127 ng/mL.

What about the Tmax [5] of the same molecule?
The Tmax was 1 h.

What about the AUC24 h [6] of the same molecule?
The AUC24 h was 1629 ng·h/mL and 857 ng·h/mL and 925 ng·h/mL and 657 ng·h/mL and 1730 ng·h/mL and 1949 ng·h/mL.

And the Tmax [6]?
Its Tmax is 1.5 h (2×) and 8 h and 1 h and 3 h.

And the AUC24 h [7]?
The AUC24 h was 783 ng·h/mL and 604 ng·h/mL and 354 ng·h/mL and 516 ng·h/mL and 876 ng·h/mL and 1349 ng·h/mL.

What about the Tmax [7] of the same molecule?
The Tmax was 2 h and 1.5 h and 3 h.

And the AUC24 h [8]?
Its AUC24 h is 1004 ng·h/mL and 1255 ng·h/mL and 2727 ng·h/mL and 1349 ng·h/mL and 1580 ng·h/mL and 1422 ng·h/mL.

What about the Tmax [8] of the same molecule?
Its Tmax is 2 h and 1 h (2×) and 1.5 h.

What about the AUC24 h [9] of the same molecule?
The AUC24 h was 1854 ng·h/mL and 1659 ng·h/mL and 1603 ng·h/mL and 1328 ng·h/mL and 1130 ng·h/mL.

And the Tmax [9]?
The Tmax was 1.5 h (3×) and 1 h.

And the “PK / plasma levels AD vs Non-AD participants” value (high dose (90 mg))?
Its value is “similar; also recorded: comparable”.

And the Cmax (human, plasma, oral, 90 mg, high dose (90 mg), AD participants, read-out: Cmax)?
Its Cmax is 477 ng/mL.

And the AUC(0-t) (human, plasma, oral, 90 mg, high dose (90 mg), AD participants, read-out: average of AUC0-24 h)?
The AUC(0-t) was 1560 ng·h/mL.

And the Cmax (human, plasma, oral, 90 mg, high dose (90 mg), Non-AD participants, read-out: Cmax)?
Its Cmax is 439 ng/mL.

What about the AUC(0-t) (human, plasma, oral, 90 mg, high dose (90 mg), Non-AD participants, read-out: average of AUC0-24 h) of the same molecule?
Its AUC(0-t) is 1290 ng·h/mL.

What about the AUC(0-t) (human, plasma, po, 10 mg, Cohort A healthy, 10 mg QD oral, Day 1, mean ± SD, read-out: Average of AUC24 h) of the same molecule?
The AUC(0-t) was 78.8 ± 43.7 ng·h/mL.

What about the Cmax (human, plasma, po, 10 mg, Cohort A healthy, 10 mg QD oral, Day 1, mean ± SD, read-out: Average of Cmax) of the same molecule?
The Cmax was 35.6 ± 12.8 ng/mL.

And the Tmax (human, plasma, po, 10 mg, Cohort A healthy, 10 mg QD oral, Day 1, mean ± SD, read-out: Average of Tmax)?
The Tmax was 0.7 ± 0.3 h.

And the Vd/F (human, plasma, po, 10 mg, Cohort A healthy, 10 mg QD oral, Day 1, mean ± SD, read-out: Average of Vd/F)?
The Vd/F was 1280 ± 544 L.

What about the AUC(0-t) (human, plasma, po, 10 mg, Cohort A healthy, 10 mg QD oral, Day 7, mean ± SD, read-out: Average of AUC24 h) of the same molecule?
Its AUC(0-t) is 90.4 ± 67.9 ng·h/mL.

And the Cmax (human, plasma, po, 10 mg, Cohort A healthy, 10 mg QD oral, Day 7, mean ± SD, read-out: Average of Cmax)?
The Cmax was 37.7 ± 15.9 ng/mL.

And the Tmax (human, plasma, po, 10 mg, Cohort A healthy, 10 mg QD oral, Day 7, mean ± SD, read-out: Average of Tmax)?
Its Tmax is 0.8 ± 0.3 h.

And the Vd/F (human, plasma, po, 10 mg, Cohort A healthy, 10 mg QD oral, Day 7, mean ± SD, read-out: Average of Vd/F)?
Its Vd/F is 307 ± 126 L.

And the Tmax (human, plasma, po, 10 mg, Table 9: Cohort A, 10 mg QD oral, Day 1, individual subjects, read-out: Tmax)?
The Tmax was 0.5 h.

And the AUC(0-t) (human, plasma, po, 10 mg, Table 9: Cohort A, 10 mg QD oral, Day 1, mean ± S.D., read-out: AUClast)?
Its AUC(0-t) is 78.8 ± 43.7 ng·h/mL.

And the Cmax (human, plasma, po, 10 mg, Table 9: Cohort A, 10 mg QD oral, Day 1, mean ± S.D., read-out: Cmax)?
Its Cmax is 35.6 ± 12.8 ng/mL.

And the Tmax (human, plasma, po, 10 mg, Table 9: Cohort A, 10 mg QD oral, Day 1, mean ± S.D., read-out: Tmax)?
The Tmax was 0.7 ± 0.3 h.

And the Vd/F (human, plasma, po, 10 mg, Table 9: Cohort A, 10 mg QD oral, Day 1, mean ± S.D., read-out: Vd/F)?
The Vd/F was 1280 ± 544 L.

What about the Tmax (human, plasma, po, 10 mg, Table 10: Cohort A, 10 mg QD oral, Day 7, individual subjects, read-out: Tmax) of the same molecule?
Its Tmax is 0.5 h.

What about the AUC over 24 h (AUC0-24) (human, plasma, po, 10 mg, Table 10: Cohort A, 10 mg QD oral, Day 7, mean ± S.D.) of the same molecule?
Its AUC over 24 h (AUC0-24) is 90.4 ± 67.9 ng·h/mL.
